A value given as a limit tells only on which side of the number the result lay.

The test system of this test is Glomerella lagenarium (Colletotrichum lagenarium). Description: Fungicidal activity against Glomerella lagenarium (Colletotrichum lagenarium) liquid culture / cucumber / preventative (anthracnose). Particulars: Colletotrichum orbiculare; 20 ppm in the applied formulation; liquid culture (PDB), growth inhibition measured photometrically after 3 to 4 days; compared to untreated control; read-out: disease control. Type of test: cell-based. The procedure: Mycelia fragments or conidia suspensions of a fungus prepared either freshly from liquid cultures of the fungus or from cryogenic storage, are directly mixed into nutrient broth. DMSO solutions of the test compound (max. 10 mg/ml) are diluted with 0.025% Tween20 by a factor of 50 and 10 μl of this solution is pipetted into a microtiter plate (96-well format). The nutrient broth containing the fungal spores/mycelia fragments is then added to give an end concentration of the tested compound. The test plates are incubated in the dark at 24° C. and 96% relative humidity. The inhibition of fungal growth is determined photometrically after 2 to 7 days, depending on the pathosystem, and percent antifungal activity relative to the untreated check is calculated.
Fungicidal activity against Glomerella lagenarium (Colletotrichum lagenarium) liquid culture/cucumber/Preventative (Anthracnose)
Conidia of the fungus from cryogenic storage are directly mixed into nutrient broth (PDB—potato dextrose broth). After placing a (DMSO) solution of test compound into a microtiter plate (96-well format), the nutrient broth containing the fungal spores is added.
The following compounds at 20 ppm in the applied formulation give at least 80% disease control in this test when compared to untreated control under the same conditions, which show extensive disease development.

Take `N#CCC(=O)N(Cc1ccc(-c2noc(C(F)(F)F)n2)cc1)Cc1ccco1` [Compound 1.470, 2-cyano-N-(2-furylmethyl)-N-[[4-[5-(trifluoromethyl)-1,2,4-oxadiazol-3-yl]phenyl]methyl]-acetamide]: the inhibition of growth at 20 ppm is ≥ 80%.

On to `CON(C(=O)CC(C)C)C(C)c1ccc(-c2noc(C(F)(F)F)n2)cc1` (stereo not shown) [Compound 1.261, N-methoxy-3-methyl-N-[1-[4-[5-(trifluoromethyl)-1,2,4-oxadiazol-3-yl]phenyl]ethyl]-butanamide], for which the inhibition of growth at 20 ppm was ≥ 80%.

`CCCON(Cc1ccc(-c2noc(C(F)(F)F)n2)cc1)C(=O)CCOC` [Compound 1.293, 3-methoxy-N-propoxy-N-[[4-[5-(trifluoromethyl)-1,2,4-oxadiazol-3-yl]phenyl]methyl]-propanamide]: the inhibition of growth at 20 ppm was ≥ 80%.

For the compound `O=C(CCl)N(Cc1ccc(-c2noc(C(F)(F)F)n2)cc1)OCc1ccc(Cl)cc1` [Compound 1.553, 2-chloro-N-[(4-chlorophenyl)-methoxy]-N-[[4-[5-(trifluoromethyl)-1,2,4-oxadiazol-3-yl]phenyl]methyl]-acetamide], the inhibition of growth at 20 ppm was ≥ 80%.

Regarding `CCCCCOC(=O)N(Cc1ccc(-c2noc(C(F)(F)F)n2)cc1)OC` [Compound 2.9, pentyl N-methoxy-N-[[4-[5-(trifluoromethyl)-1,2,4-oxadiazol-3-yl]phenyl]methyl]-carbamate], the inhibition of growth at 20 ppm was ≥ 80%.

Consider `COCCC(=O)N(Cc1ccc(-c2noc(C(F)(F)F)n2)cc1)OCc1ccc(Cl)cc1` [Compound 1.549, N-[(4-chlorophenyl)-methoxy]-3-methoxy-N-[[4-[5-(trifluoromethyl)-1,2,4-oxadiazol-3-yl]phenyl]methyl]-propanamide], for which the inhibition of growth at 20 ppm is ≥ 80%.

As for `CCCON(Cc1ccc(-c2noc(C(F)(F)F)n2)cc1)C(=O)C1(C)CC1` [Compound 1.302, 1-methyl-N-propoxy-N-[[4-[5-(trifluoromethyl)-1,2,4-oxadiazol-3-yl]phenyl]methyl]-cyclopropane-carboxamide], the inhibition of growth at 20 ppm is ≥ 80%.

For the compound `COCCC(=O)N(Cc1ccc(-c2noc(C(F)(F)F)n2)cc1)OCC=C(Cl)Cl` [Compound 1.533, N-(3,3-dichloroallyloxy)-3-methoxy-N-[[4-[5-(trifluoromethyl)-1,2,4-oxadiazol-3-yl]phenyl]methyl]-propanamide], the inhibition of growth at 20 ppm was ≥ 80%.

For the compound `CCC(C)C(=O)N(Cc1ccc(-c2noc(C(F)(F)F)n2)cc1)OCC=C(Cl)Cl` (stereo not shown) [Compound 1.542, N-(3,3-dichloroallyloxy)-2-methyl-N-[[4-[5-(trifluoromethyl)-1,2,4-oxadiazol-3-yl]phenyl]methyl]-butanamide], the inhibition of growth at 20 ppm was ≥ 80%.

For the compound `CCCON(Cc1ccc(-c2noc(C(F)(F)F)n2)cc1)C(=O)COCC` [Compound 1.297, 2-ethoxy-N-propoxy-N-[[4-[5-(trifluoromethyl)-1,2.4-oxadiazol-3-yl]phenyl]methyl]-acetamide], the inhibition of growth at 20 ppm was ≥ 80%.

For `CON(C(=O)C1CCC1)C(C)c1ccc(-c2noc(C(F)(F)F)n2)cc1` (stereo not shown) [Compound 1.262, N-methoxy-N-[1-[4-[5-(trifluoromethyl)-1,2,4-oxadiazol-3-yl]pheny1]ethyl]-cyclobutane-carboxamide], the inhibition of growth at 20 ppm was ≥ 80%.

For `O=C(N(Cc1ccc(-c2noc(C(F)(F)F)n2)cc1)CC1CC1)C1(C(F)(F)F)CC1` [Compound 1.203, N-(cyclopropylmethyl)-1-(trifluoromethyl)-N-[[4-[5-(trifluoromethyl)-1,2,4-oxadiazol-3-yl]phenyl]methyl]-cyclopropane-carboxamide], the inhibition of growth at 20 ppm is ≥ 80%.

Regarding `CC1CC1C(=O)N(Cc1ccc(-c2noc(C(F)(F)F)n2)cc1)CC1CCCO1` (stereo not shown) [Compound 1.428, 2-methyl-N-(tetrahydrofuran-2-ylmethyl)-N-[[4-[5-(trifluoromethyl)-1,2,4-oxadiazol-3-yl]phenyl]methyl]-cyclopropane-carboxamide], the inhibition of growth at 20 ppm is ≥ 80%.

Source of the values: patent US11180462B2, “Microbiocidal oxadiazole derivatives” (SYNGENTA PARTICIPATIONS AG, priority 2015, dated 2021).
